These results are taken from patent publication US20240206516A1, “SYSTEMS AND METHODS FOR SUGAR-REDUCTION AND/OR FIBER PRODUCTION FOR FOOD AND OTHER APPLICATIONS” (President and Fellowa of Harvard College, priority 2021, published 2024).

The target in one assay is glucose oxidase (Aspergillus niger, UniProt P13006). The assay is described as follows: Enzymatic activity of glucose oxidase in the presence of polyphenol and metal ions at different pH. Format: biochemical. As for the experimental part:
Enzymatic activity of glucose oxidase was tested in the presence of polyphenol and metal ions from minerals at different pH. Polyphenol is known to be able to bind to enzymes and also form metal coordination with the metal ions.
The enzyme (e.g, glucose oxidase) was combined with different polyphenols (e.g., tannic acid, EGCG) and metal ions from different minerals (e.g., CaCl2, FeCl3, MgCl2, ZnCl2) in buffer solutions having two pH conditions. A buffer having a first pH condition of 3.5 was used to simulate juice buffer. A buffer having a second pH condition of 7 was used to simulate intestinal buffer. The effect of bile salt (an intrinsic compound found in the intestine) on enzymatic activity of glucose oxidase was also tested by incorporating it into the simulated pH 7 intestinal buffer. It should be noted that the enzyme in FIG. 4 is not limited to glucose oxidase, as described in this example. Any appropriate enzymes described elsewherein herein (e.g., inulosucrase, etc.) may be employed using the experimental design in FIG. 4 for sugar reduction.
The enzyme activity of glucose oxidase was measured by measuring the capability of glucose oxidase to convert glucose in different experimental conditions. […] It was hypothesized that at a pH of 7, polyphenol formed metal coordination complexes with metal ions and thus dissociated from the glucose oxidase.
A similar trend in […] was observed when a different polyphenol, EGCE, was used instead of tannic acid.

For the next assay, the target named is T1, inulosucrase (Lactobacillus gasseri, UniProt D3WYV9).
T1 sequence (D3WYV9 37-761): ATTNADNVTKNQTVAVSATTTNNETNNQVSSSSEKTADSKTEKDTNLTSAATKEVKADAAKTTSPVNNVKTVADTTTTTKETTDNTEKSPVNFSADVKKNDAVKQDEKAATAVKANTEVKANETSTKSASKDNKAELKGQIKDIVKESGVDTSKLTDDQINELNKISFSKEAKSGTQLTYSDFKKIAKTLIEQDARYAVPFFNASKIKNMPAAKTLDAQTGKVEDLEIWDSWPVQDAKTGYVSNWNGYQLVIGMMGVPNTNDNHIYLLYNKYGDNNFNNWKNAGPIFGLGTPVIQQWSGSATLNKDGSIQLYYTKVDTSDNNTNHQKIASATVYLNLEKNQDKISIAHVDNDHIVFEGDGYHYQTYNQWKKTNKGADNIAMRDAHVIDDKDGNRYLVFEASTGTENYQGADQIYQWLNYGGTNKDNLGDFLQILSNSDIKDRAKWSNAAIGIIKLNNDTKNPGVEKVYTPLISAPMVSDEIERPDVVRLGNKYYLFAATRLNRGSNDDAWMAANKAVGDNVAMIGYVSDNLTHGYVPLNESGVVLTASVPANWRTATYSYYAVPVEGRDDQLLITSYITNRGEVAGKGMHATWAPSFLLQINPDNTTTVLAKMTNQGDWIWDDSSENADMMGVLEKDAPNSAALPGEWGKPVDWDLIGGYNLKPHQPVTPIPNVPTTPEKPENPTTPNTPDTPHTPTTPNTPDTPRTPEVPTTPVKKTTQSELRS
The assay is described as follows: Inhibition of inulosucrase enzymatic activity by tannic acid. The class given is biochemical. As for the experimental part: In addition to encapsulating the inulosucrase-nanocellulose complex, an inhibitor (e.g., tannic acid) could also be encapsulated together with the complex. The amount of tannic acid necessary to inhibit enzymatic activity of inulosucrase (while attached to nanocellulose) is shown in FIG. 19. […] The effect of inulosucrase in various food products were studied. Free inulosucrase (not attached to any substrate) was added to a beverage (e.g., Capri San®) and the concentration of various saccharides was measured after 10 minutes at room temperature and 37° C. (FIG. 20A). […] Additional data for other food products (e.g., chocolates) are illustrated in FIGS. 20B-20C.
The effect of tannic acid on enzymatic activity in various food products at different pH conditions was studied. Tannic acid was combined with an enzyme (e.g., inulosucrase) at 1:1 molar ratio to form tannic acid-enzyme (TA-Enz) complex. The TA-Enz complex was prepared at various pH levels (e.g., 3.5, 5.5) and tannic acid concentrations (e.g., 10 mM, 30 mM, 50 mM). The effect of TA-Enz complex in sucrose solution and apple juice was compared to that of free enzyme (enzyme not complexed with tannic acid). Residual sucrose of sucrose solution and apple juice was first monitored in the presence of TA-Enz complexes after an incubation time of 15 minutes.
Residual sucrose of sucrose solution and apple juice was also monitored in the presence of TA-Enz complexes after an incubation time of 24 hours (FIGS. 23A-23B).

Where [1] appears, read: pH 3.5 (simulated juice buffer), polyphenol with Mg^+2 (from MgCl2).
[2] abbreviates: pH 7 (simulated intestinal buffer), polyphenol with Mg^+2.
Setting [3] is: pH 7 with bile salt (0.2 wt %), polyphenol with Mg^+2.

Chain of glucose oxidase (P13006 17-605, species assumed): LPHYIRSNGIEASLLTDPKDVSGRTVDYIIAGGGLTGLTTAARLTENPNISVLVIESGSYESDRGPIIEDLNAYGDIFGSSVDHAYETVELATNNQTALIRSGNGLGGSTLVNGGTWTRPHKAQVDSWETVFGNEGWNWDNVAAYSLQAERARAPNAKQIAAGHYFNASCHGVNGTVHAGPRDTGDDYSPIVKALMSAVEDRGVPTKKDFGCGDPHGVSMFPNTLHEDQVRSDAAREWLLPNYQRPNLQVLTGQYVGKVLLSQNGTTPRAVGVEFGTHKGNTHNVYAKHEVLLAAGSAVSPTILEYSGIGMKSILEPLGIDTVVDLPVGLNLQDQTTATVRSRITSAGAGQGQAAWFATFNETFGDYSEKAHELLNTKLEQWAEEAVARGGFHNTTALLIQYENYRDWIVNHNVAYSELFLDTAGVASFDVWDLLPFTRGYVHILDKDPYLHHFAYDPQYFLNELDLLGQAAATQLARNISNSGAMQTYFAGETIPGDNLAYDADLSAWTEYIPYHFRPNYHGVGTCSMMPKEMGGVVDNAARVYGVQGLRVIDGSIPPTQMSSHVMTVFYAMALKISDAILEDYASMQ

Turning to `O=C(O[C@@H]1Cc2c(O)cc(O)cc2O[C@@H]1c1cc(O)c(O)c(O)c1)c1cc(O)c(O)c(O)c1` [EGCE, Epigallocatechin gallate], the “enzymatic activity of glucose oxidase” value is listed as “prohibited its enzymatic activity” on glucose oxidase (setting [1]), “partially recovered” on glucose oxidase (setting [2]) and “further enzymatic activity was recovered” at glucose oxidase (setting [3]).
Take `O=C(OC[C@H]1O[C@@H](OC(=O)c2cc(O)c(O)c(OC(=O)c3cc(O)c(O)c(O)c3)c2)[C@H](OC(=O)c2cc(O)c(O)c(OC(=O)c3cc(O)c(O)c(O)c3)c2)[C@@H](OC(=O)c2cc(O)c(O)c(OC(=O)c3cc(O)c(O)c(O)c3)c2)[C@@H]1OC(=O)c1cc(O)c(O)c(OC(=O)c2cc(O)c(O)c(O)c2)c1)c1cc(O)c(O)c(OC(=O)c2cc(O)c(O)c(O)c2)c1` [tannic acid]: the “inulosucrase activity after polyphenol inhibition” value at inulosucrase (in the presence of bile salts) is on record as “reactivated in the presence of bile salts”. For the same molecule, the “pH-dependent inhibition and reactivation of enzymatic activity” value on inulosucrase (low pH ˜3.5 vs higher pH ˜6.8) was “repeated inhibition of enzymatic activity at low pH (e.g., pH˜3.5) and reactivation of enzymatic activity at higher pH (e.g., pH˜6.8)”. The “enzymatic activity of inulosucrase (attached to nanocellulose)” value at inulosucrase (with increase in tannic acid concentration) was “reduction in enzymatic activity”. The “concentration at which glucose oxidase activity was significantly inhibited” value at glucose oxidase amounted to 1 µM. The “enzymatic activity of glucose oxidase” value at glucose oxidase (setting [1]) is reported as “further inhibited”; on glucose oxidase (setting [2]), “partially recovered”; on glucose oxidase (setting [3]), “furthered recovered”.
